Tests used:
Assay type in all cases: cell-based
C. parvum = experiment: In vitro Cryptosporidium time-kill curve assay in HCT-8 cells; settings: C. parvum in HCT-8 cell culture
Experimental: SUPPLEMENTARY INFORMATION ileocecal adenocarcinoma (HCT-8) cel l s (ATC C ) w ere cul t ured i n RP M I 1640 medi um (I nv i t rog en) supplemented with 10% fetal bovine serum (Sigma-Al dri ch), 120 U/ml peni ci l l i n, and 12 0 µg/ml streptomycin (ATCC), and used between passages 9 and 39 for all experiments. Cryptospori di um parvum Iowa isolate oocysts were purchased from Bunch Grass Farm (Deary, ID). Oocys ts were triggered to excyst by treating with 10 mM hydrochloric acid (10 min, 37°C) and the n 2 mM sodium taurocholate (Sigma-Al d r i c h ) i n P B S ( 1 0 m i n , […] ) . They w ere t hen added t o > 95% co nfl uent HC T-8 cel l monol ay ers i n 384-well plates (~5,500 oocysts/well). Ex pe ri me nt al compounds w e re adde d 3 h after i nfecti on, and assay pl ates were incubated for 48 h post-infection at 37°C unde r 5% CO2. Assay pl at es w ere t hen w as hed t h ree t i mes w i t h PBS cont ai ni ng 11 1 mM D-galactose, fixed with 4% parafo rmal dehy de i n PBS, t reat ed f or 10 mi n at 3 7°C w i t h 0. 25% T ri t on X-100, an d s t ai ned w i t h 1. […] […] […] Curves were pl ot t ed and t he hal f-maxi mal effecti ve (EC50) and 90% effecti v e concentrati on (EC90) were cal cul ated us i ng G raphPad Pri s m s oft w are, v ersi on 6. 01. […]
Cryptospori di um parvum elimination during cul ture in HCT-8 cells was measured as recently des cri bed (10). […]

Pf(TM90C2B) = experiment: Drug resistant P. falciparum TM90C2B, [3H]-hypoxanthine incorporation; settings: Plasmodium falciparum, atovaquone-resistant
Source text: (§1) 3.2 Cytotoxicity Studies (Dundee)
(§2) In vi t ro cy totox i ci ty s tudies can be ca rri ed out us i ng Hep G 2 (Human C aucas i an hepatocy te ca rci noma, ECACC cat. no. 850 114 30) us ed as i ndi cators f or g eneral mammal i an cel l tox i ci ty . […]
(§3) 3.3 In vitro Cell Assay D ata Analysis (Du ndee) […]
(§4) as 0%. Qual i ty control c ri teri a for passi ng pl ates were as fol l ow s : Z’ > 0.
(§5) < 15 . T he f ormula used to calculate Z’ is 1- 3´ (St D e v _ hi gh + St D e v_ low) . […]
(§6) Al l EC50 Curve fitti ng was undertaken usi ng XLFi t versi on 4.2 usi ng Model 205 wi th the foll owi ng 4 paramet ri c equat i on: A + (?-A) ,where A=% i nhi bi ti on at bo ttom, B=% i nhi bi ti on at top, C= EC , […]
(§7) D= slope, x= inhibitor concentration a nd y= % inhibition. […]
(§8) was fixed to 100 only when at least 50% of inhibition was reached. […]
(§9) Hoffmann-La Ro che Ltd) a nd resi stant strai ns K1 and TM90C2B (fr om the Malaria Research an d Reference Reag ent Res ou rce C enter, accu rate d es cri pti ons of the g eneti c backg roun ds of thes e strains can be obtained at http://www.beiresources.org) were cultivated in a variation of the medium prev i ous l y des cri bed (5, 6), c onsi sti ng of RPMI 16 40 su ppl emented wi th 0.5% ALBUMAX® II, 25 m M Hepes , 25 mM NaHC O3 (pH 7. […] The re s ul t s were recorded and expressed as a percentage of the untreated controls. […]

Pf(NF54) = experiment: Drug-sensitive P. falciparum NF54, [3H]-hypoxanthine incorporation; settings: Plasmodium falciparum, drug-sensitive strain
Source text: as §1, §2, §3, §4, §5, §6, §7, §8, §9

| Compound | time-kill curve, parasite elimination (C. parvum) | EC50 (Pf(TM90C2B)) [nM] | EC50 (Pf(NF54)) [nM] |
| --- | --- | --- | --- |
| C[C@H]1CCC[C@H](C[C@H]2Cc3cc(O)cc(O)c3C(=O)O2)O1 [Compound 1, cladosporin, reference compound] | eliminated parasites at an exponential rate | – | – |
| O=C(NCC1(O)CCC(F)(F)CC1)c1cc(=O)c2cc(F)ccc2o1 [Compound 5] | eliminated parasites at an exponential rate | 520 | 390 |

From article PMC6452685, “Lysyl-tRNA synthetase as a drug target in malaria and cryptosporidiosis” (Proceedings of the National Academy of Sciences of the …, 2019)
